Where two headings read alike, the source gives them in different places.
Assays:
[1] = Stability of stock and working solutions at -20°C; type: physicochemical; details: 1 mg/mL in DMSO, -20°C ±5°C
Method: The stability of stock and working solutions, as well the stability of IS stock solution, following storage at -20°C ±5°C were investigated by concordance verification by comparing the stored solution against a freshly prepared one.

[2] = type: in vitro ADME; details: human, 120 min, 10 ng/mL
Method: To ensure correct sample collection during the clinical trial procedures, whole-blood (using K3-EDTA as anticoagulant) stability was studied by spiking the blood (lurbinectedin at 20 ng/mL and M4 and M6 at 10 ng/mL). Aliquots of the whole blood were then centrifuged at 4°C for 0, 30, 60, 90 and 120 minutes post equilibration (15 minutes at 37°C) to produce plasma, which was then frozen prior to analysis. This was performed at room temperature (and in an ice bath for lurbinectedin). The derived plasma samples were analyzed in triplicate, and the criterion for acceptance was defined as having a response within ±15% of the zero-minute sample.

[3] = parameters: method as in PMID 35042701; details: patients, radio-labeled lurbinectedin mass balance study; cited from earlier work
[4] = Stability in human K3-EDTA plasma under different test conditions; type: in vitro ADME
Method: Likewise, a wide range of long-term stability tests reflecting the sort of real-world storage issues that can occur in hospital-based clinical studies (e.g., short-term storage at -20°C before transfer to -80°C, availability of -60°C but not -80°C), was evaluated to ensure plasma samples are analyzed before degradation can occur. Therefore, the following plasma stability tests were performed: room temperature, freeze thaw (one cycle consisted of 2 hours at room temperature followed by freezing for at least 12 hours at -80°C ± 10°C) and long-term (at -20°C ± 5°C, -60°C ± 10°C and -80°C ± 10°C). For each stability test, two concentrations (LQC and HQC) and six replicates per level were analyzed. For acceptance criteria, the precision (%CV) was ≤15% and the bias when compared with the nominal concentration was ±15%. […]

[5] = parameters: method as in PMID 35042701; details: NHPs; cited from earlier work
[6] = Chemical stability of M4 reference standard on isolation; type: physicochemical; details: column chromatography on silica gel or reversed-phase chromatography
Method: The chemical synthesis of the reference standard for M4 was not feasible. […] Therefore, M4 and M4-d4 solutions were biosynthetically obtained following the incubation of lurbinectedin and PM040038, respectively, in liver microsomes according to a three-step method described elsewhere.

[7] = 5 freeze-thaw cycles, nom. conc. 1.5 ng/mL
[8] = 5 freeze-thaw cycles, nom. conc. 16 ng/mL
[9] = -80°C ±10°C, 237 days, nom. conc. 1.5 ng/mL
[10] = -80°C ±10°C, 237 days, nom. conc. 16 ng/mL
[11] = Ambient, 21.8 hours, nom. conc. 1.5 ng/mL
[12] = Ambient, 21.8 hours, nom. conc. 16 ng/mL
[13] = -80°C ±10°C, 197 days, nom. conc. 1.5 ng/mL
[14] = -80°C ±10°C, 197 days, nom. conc. 16 ng/mL
[15] = Ambient, 6 hours, nom. conc. 1.5 ng/mL
[16] = Ambient, 6 hours, nom. conc. 16 ng/mL

| Compound | stability of stock solution in DMSO [1] [days] | difference in concentration from time zero to 120 minutes [2] [%] | circulating metabolite in plasma, % compared with parent compound [3] [%] | Bias [4, 7] [%] | Measured conc. [4, 7] [ng/mL] | Bias [4, 8] [%] | Measured conc. [4, 8] [ng/mL] | circulating metabolite in plasma, % compared with parent compound [5] [%] | further results |
| --- | --- | --- | --- | --- | --- | --- | --- | --- | --- |
| [2H]C1([2H])N[C@]2(CS[C@@H]3c4c(OC(C)=O)c(C)c5c(c4[C@H](COC2=O)N2[C@@H]3[C@@H]3N[C@@H](Cc4cc(C)c(OC)c(O)c43)[C@@H]2O)OCO5)c2[nH]c3ccc(OC)cc3c2C1([2H])[2H] [PM190539, N-Desmethyl-lurbinectedin-d4] | ≥ 28 |  |  |  |  |  |  |  |  |
| COc1ccc2[nH]c3c(c2c1)CCN[C@]31CS[C@@H]2c3c(OC(C)=O)c(C)c4c(c3[C@H](COC1=O)N1[C@@H]2[C@@H]2N[C@@H](Cc3cc(C)c(OC)c(O)c32)[C@@H]1O)OCO4 [M6, N-desmethyl-lurbinectedin] | ≥ 28 | -8 | 10.4 | 13 | 1.69 | 14 | 18.2 | 0.4 | Bias [4, 9]: 13%; Measured conc. [4, 9]: 1.70 ng/mL; Bias [4, 10]: 15%; Measured conc. [4, 10]: 18.4 ng/mL; Bias [4, 11]: 5%; Measured conc. [4, 11]: 1.58 ng/mL; Bias [4, 12]: 5%; Measured conc. [4, 12]: 16.8 ng/mL |
| COc1ccc2[nH]c3c(c2c1)CCN[C@]31CS[C@@H]2c3c(OC(C)=O)c(C)c(O)c(O)c3[C@H](COC1=O)N1[C@@H]2[C@H]2c3c(cc(C)c(OC)c3O)C[C@@H]([C@@H]1O)N2C [M4, 1′,3′-dihydroxy-lurbinectedin] |  | -3 | 14.3 | 5 | 1.58 | -3 | 15.6 | 0.9 | stability on isolation by conventional methods [6]: too unstable to be isolated; Bias [4, 13]: 3%; Measured conc. [4, 13]: 1.54 ng/mL; Bias [4, 14]: -1%; Measured conc. [4, 14]: 15.8 ng/mL; Bias [4, 15]: -7%; Measured conc. [4, 15]: 1.40 ng/mL; Bias [4, 16]: -14%; Measured conc. [4, 16]: 13.7 ng/mL |
| [2H]C1([2H])N[C@]2(CS[C@@H]3c4c(OC(C)=O)c(C)c5c(c4[C@H](COC2=O)N2[C@@H]3[C@H]3c4c(cc(C)c(OC)c4O)C[C@@H]([C@@H]2O)N3C)OCO5)c2[nH]c3ccc(OC)cc3c2C1([2H])[2H] [PM040038] | ≥ 36 |  |  |  |  |  |  |  |  |
